Assays:
[1] = system: cerebral infarction model mice; assay: Necrosis inhibition by intravenous administration in cerebral infarction models; assay type: in vivo, mouse; conditions: 300 μG i.v. 4 hours after infarction, then 336 μg s.c. over 21 hours
Protocol: A cerebral ischemic area was artificially developed in wild-type mice (C57BL6/J) using embolic suture. Specifically, nylon suture was inserted from the right external carotid artery into the intracranial internal carotid artery, and the right middle cerebral artery was temporarily occluded. The embolic suture was removed 40 minutes after the formation of the ischemic area, and the blood was reperfused. Four hours after the formation of the ischemic area, 2 μl of MHP1 solution (0.625 μg/2 μl, the solvent was artificial cerebrospinal fluid (aCSF)) or 2 μl of aCSF was administered by injection into the ventricle of the mice with a neurological severe score of 1 or 2. […] The area of the cresyl violet staining site was regarded as the cerebral infarct area (necrosis site), and the ratio of cerebral infarct area was determined by the following formula. […]
Cerebral infarction models were produced in the same manner as in Example 10. […] Twenty-four hours and forty-eight hours after the production of the cerebral infarction models, neurological severity scores were measured. Furthermore, the mice were sacrificed 48 hours after the production of the cerebral infarction models, and the ratio of cerebral infarct area was determined in the same manner as in Example 10.

RAW264.7 cells = assay: Proinflammatory cytokine secretion inhibition, LPS-stimulated macrophage cells (ELISA); assay type: cell-based, mouse; conditions: MHP1 30, 50 or 100 μg/ml, LPS 2 ng/ml, 24 hours
Protocol: RAW264.7 cells (mouse-derived macrophage cell line) were cultured in a DMEM medium (+4% FBS) containing MHP1 (final concentration: 30, 50, or 100 μg/ml) and LPS (final concentration: 2 ng/ml) for 24 hours by a standard method. After culture, the concentrations of IL-6 and TNFα in the medium were measured by the ELISA method. The results are shown in FIG. 3 (IL-6) and FIG. 4 (TNFα).

[2] = system: RANK knockdown RAW264.7 cells; assay: RANK dependency: cytokine secretion in RANK knockdown cells; assay type: cell-based, mouse; conditions: for secretion of IL-6: FIG. 10; for secretion of TNFα: FIG. 11
Protocol: RAW264.7 cells were suspended in a DMEM medium (+10% FBS), seeded on a 24-well plate, and cultured at 37° C. at a CO2 concentration of 5%. To 100 μl of serum-free DMEM medium, 37.5 ng (final concentration: 5 nM) of siRNA against RANK (a double strand of the sequence represented by SEQ ID NO: 17 and the sequence represented by SEQ ID NO: 18, produced by GeneDesign) or 37.5 ng (final concentration: 5 nM) of control siRNA (a double strand of the sequence represented by SEQ ID NO: 19 and the sequence represented by SEQ ID NO: 20, produced by GeneDesign), and 3 μl of HiPerFect Transfection Reagent (QIAGEN) were added, and the resultant was allowed to stand at room temperature for 10 minutes. This was added to the RAW264.7 cell culture medium. After culture at 37° C. at a CO^2 concentration of 5% for 24 hours, the cells were collected. A protein extract was obtained from the cells by a standard method, and RANK in this extract was detected at a dilution concentration of 1/100 by the Western blotting method (anti-RANK antibody: anti-mRANK (Cat. No. AF692), produced by R&D Systems). […] FIG. 9 confirmed that RANK was knocked down by siRNA against RANK (comparison between lane 2 and lane 3).
MHP1 and LPS were made to act on RANK knockdown cells, as in Example 3, and the concentrations of IL-6 and TNFα in the medium were measured by the ELISA method. FIGS. 10 and 11 show the results.

[3] = system: osteoclast precursor cells; assay: Osteoclast differentiation, Osteoclast Culture Kit (TRAP and nuclear staining); assay type: cell-based
Protocol: Osteoclast Culture Kit V-2 (OSC33, produced by Cosmo Bio Co., Ltd.) was used. According to the manual of the kit, culture of osteoclast precursor cells was started in the presence of M-CSF (final concentration: 50 ng/ml) in the A and B groups, and in the presence of M-CSF (final concentration: 50 ng/ml) and MHP1 (final concentration: 30, 50, or 100 μg/ml) in the C and D groups. Thereafter, 24 hours to 7 days after the start of culture, the A group was cultured in the presence of M-CSF (final concentration: 50 ng/ml), the B group was cultured in the presence of M-CSF (final concentration: 50 ng/ml) and RANKL protein (final concentration: 50 ng/ml), the C group was cultured in the presence of M-CSF (final concentration: 50 ng/ml) and MHP1 (final concentration: 30, 50, or 100 μg/ml), and the D group was cultured in the presence of M-CSF (final concentration: 50 ng/ml), RANKL protein (final concentration: 50 ng/ml), and MHP1 (final concentration: 30, 50, or 100 μg/ml). After culture, the cells were subjected to TRAP staining and nuclear staining according to a standard method.

[4] = system: cerebral infarction model mice; assay: Osteoclasts after cerebral infarction in vivo (TRAP staining of radius); set-up: species or system mouse; conditions: 300 μG i.v. then 336 μg s.c.; radius distal portion, paralyzed side, 48 hours; FIG. 24
Protocol: Cerebral infarction models were produced in the same manner as in Example 10. Four hours after the production of the cerebral infarction models, 300 μG/150 μL of MHP1 administration solution was administered through the cervical vein. Thereafter, 336 μg was continuously administered by subcutaneous injection using an Alzet pump for 21 hours. Forty-eight hours after the production of the cerebral infarction models, the radius distal portion of the left hand (paralyzed side) was stained with TRAP, and the ratio of the stained region (osteoclast surface) relative to the bone surface was calculated based on the obtained staining images.

[5] = RANK knockdown cells (siRNA against RANK)
[6] = control siRNA-introduced RAW264.7 cells

## LMVYVVKTSIKIPSSHNLMKGGSTKNWSGN (listed as Mus musculus) [MHP1]
[1]; 24 and 48 hours, FIG. 23
  symptoms of cerebral infarction (neurological severity scores): could be relieved
[1]; 48 hours, FIG. 22
  necrosis occurring after cerebral ischemia (ratio of cerebral infarct area): could be suppressed
RAW264.7 cells; FIG. 3
  increase in the amount of IL-6 secretion by LPS: suppressed
RAW264.7 cells; FIG. 4
  increase in the amount of TNFα secretion by LPS: suppressed
[2]; [5]
  secretion of IL-6: not inhibited
  secretion of TNFα: not inhibited
[2]; [6]
  secretion of IL-6: inhibited
  secretion of TNFα: inhibited
[3]; M-CSF 50 ng/ml + RANKL protein 50 ng/ml + MHP1 30, 50 or 100 μg/ml, FIG. 13 (a)
  differentiation of osteoclasts promoted by RANKL: inhibited
[3]; with M-CSF 50 ng/ml, MHP1 30, 50 or 100 μg/ml or RANKL protein 50 ng/ml, FIG. 13
  differentiation of osteoclasts by the substance itself: did not occur
[4]
  increase in the number of TRAP-positive osteoclasts on the bone ridge due to cerebral infarction: suppressed
